Laboratory results published in patent US10807952B2 (Achillion Pharmaceuticals, Inc., priority 2015, dated 2020).

What follows are molecules tested against Human Factor D (Homo sapiens (Human), UniProt P00746) (assay: Human Factor D assay (Z-L-Lys-SBzl / DTNB, absorbance at 405 nm)). Conditions: Table 3; Human Factor D 80 nM, assay of Example 13.
Chain of Human Factor D (P00746 26-253): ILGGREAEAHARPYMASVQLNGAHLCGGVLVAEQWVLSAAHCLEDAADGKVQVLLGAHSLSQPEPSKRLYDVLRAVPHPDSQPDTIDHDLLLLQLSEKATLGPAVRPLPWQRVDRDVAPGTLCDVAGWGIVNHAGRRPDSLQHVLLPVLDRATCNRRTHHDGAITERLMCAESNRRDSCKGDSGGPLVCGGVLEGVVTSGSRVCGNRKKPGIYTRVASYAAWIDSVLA
Assay type: biochemical
Description: Human Factor D (purified from human serum, Complement Technology, Inc.) at 80 nM final concentration was incubated with test compound at various concentrations for 5 minutes at room temperature in 50 mM Tris, 1M NaCl, pH 7.5. A synthetic substrate Z-L-Lys-SBzl and DTNB (Ellman's reagent) were added to final concentrations of 100 μM each. […] IC50 values were calculated by nonlinear regression of complement Factor D reaction rates as a function of test compound concentration.
`CC(=O)c1cn(CC(=O)N2C[C@H](F)C[C@H]2C(=O)Nc2cccc(-c3ccc4[nH]cnc4c3Cl)c2F)c2ccccc12` [Compound 2, (2S,4R)-1-(2-(3-acetyl-1H-indol-1-yl)acetyl)-N-(3-(4-chloro-1H-benzo[d]imidazol-5-yl)-2-fluorophenyl)-4-fluoropyrrolidine-2-carboxamide] was tested, and the IC50 was < 1 µM.
In the case of `CC(=O)c1nn(CC(=O)N2C[C@H](F)C[C@H]2C(=O)Nc2cccc(-c3ccc4[nH]cnc4c3Cl)c2F)c2ccccc12` [Compound 3, (2S,4R)-1-(2-(3-acetyl-1H-indazol-1-yl)acetyl)-N-(3-(4-chloro-1H-benzo[d]imidazol-5-yl)-2-fluorophenyl)-4-fluoropyrrolidine-2-carboxamide], the IC50 is reported as < 1 µM.
`CC(=O)c1nn(CC(=O)N2[C@@H]3C[C@@H]3C[C@H]2C(=O)Nc2cccc(-c3ccc4[nH]cnc4c3Cl)c2F)c2ccccc12` [Compound 5, (1R,3S,5R)-2-(2-(3-acetyl-1H-indazol-1-yl)acetyl)-N-(3-(4-chloro-1H-benzo[d]imidazol-5-yl)-2-fluorophenyl)-2-azabicyclo[3.1.0]hexane-3-carboxamide] was tested, and the IC50 was < 1 µM.
`NC(=O)c1nn(CC(=O)N2C[C@H](F)C[C@H]2C(=O)Nc2cccc(-c3ccc4[nH]cnc4c3)c2F)c2ccccc12` [Compound 6, 1-(2-((2S,4R)-2-(3-(1H-benzo[d]imidazol-5-yl)-2-fluorophenyl-carbamoyl)-4-fluoropyrrolidin-1-yl)-2-oxoethyl)-1H-indazole-3-carboxamide] was tested, and the IC50 was < 1 µM.
`CC(=O)c1cn(CC(=O)N[C@H](C(=O)Nc2cccc(-c3ccccc3Cl)c2F)[C@@H](C)O)c2ccccc12` [Compound 7, (2S,3R)-2-(2-(3-Acetyl-1H-indol-1-yl)acetamido)-N-(2′-chloro-2-fluorobiphenyl-3-yl)-3-hydroxybutanamide] was tested, and the IC50 was < 1 µM.
In the case of `CO/N=C(\C)c1ccc(Cl)c(-c2cccc(NC(=O)[C@@H]3C[C@@H](F)CN3C(=O)Cn3nc(C(N)=O)c4ccccc43)c2F)c1` [Compound 8, 1-(2-((2S,4R)-2-((2′-Chloro-2-fluoro-5′-((E)-1-(methoxyimino)ethyl)-[1,1′-biphenyl]-3-yl)carbamoyl)-4-fluoropyrrolidin-1-yl)-2-oxoethyl)-1H-indazole-3-carboxamide], the IC50 is reported as < 1 µM.
In the case of `NC(=O)c1nn(CC(=O)N2C[C@H](F)C[C@H]2C(=O)Nc2cccc(-c3ccc4[nH]c(C(F)(F)F)nc4c3Cl)c2F)c2ccccc12` [Compound 9, 1-(2-((2S,4R)-2-(3-(4-chloro-2-(trifluoromethyl)-1H-benzo[d]imidazol-5-yl)-2-fluorophenyl-carbamoyl)-4-fluoropyrrolidin-1-yl)-2-oxoethyl)-1H-indazole-3-carboxamide], the IC50 is reported as < 1 µM.
`Cc1nc2cc(-c3cccc(NC(=O)[C@@H]4C[C@@H](F)CN4C(=O)Cn4nc(C(N)=O)c5ccccc54)c3F)ccc2[nH]1` [Compound 10] was tested, and the IC50 was < 1 µM.
In the case of `NC(=O)c1nn(CC(=O)N2C[C@H](F)C[C@H]2C(=O)Nc2cccc(-c3ccc4[nH]c(=O)[nH]c4c3Cl)c2F)c2ccccc12` [Compound 11, 1-(2-((2S,4R)-2-((3-(4-Chloro-2-oxo-2,3-dihydro-1H-benzo[d]imidazol-5-yl)-2-fluorophenyl)carbamoyl)-4-fluoropyrrolidin-1-yl)-2-oxoethyl)-1H-indazole-3-carboxamide], the IC50 is reported as < 1 µM.
In the case of `Cc1nc2c(Cl)c(-c3cccc(NC(=O)[C@@H]4C[C@@H](F)CN4C(=O)Cn4nc(C(N)=O)c5ccccc54)c3F)ccc2[nH]1` [Compound 12, 1-(2-((2S,4R)-2-(3-(4-chloro-2-methyl-1H-benzo[d]imidazol-5-yl)-2-fluorophenyl-carbamoyl)-4-fluoropyrrolidin-1-yl)-2-oxoethyl)-1H-indazole-3-carboxamide], the IC50 is reported as < 1 µM.
`N#Cc1n[nH]c2ccc(-c3cccc(NC(=O)[C@@H]4C[C@@H](F)CN4C(=O)Cn4nc(C(N)=O)c5ccccc54)c3F)cc12` [Compound 13, 1-(2-((2S,4R)-2-(3-(3-cyano-1H-indazol-5-yl)-2-fluorophenyl-carbamoyl)-4-fluoropyrrolidin-1-yl)-2-oxoethyl)-1H-indazole-3-carboxamide] was tested, and the IC50 was < 1 µM.
`C[C@H](O)c1nc2c(Cl)c(-c3cccc(NC(=O)[C@@H]4C[C@@H](F)CN4C(=O)Cn4nc(C(N)=O)c5ccccc54)c3F)ccc2[nH]1` [Compound 14, 1-(2-((2S,4R)-2-((3-(7-Chloro-2-((S)-1-hydroxyethyl)-1H-benzo[d]imidazol-6-yl)-2-fluorophenyl)carbamoyl)-4-fluoropyrrolidin-1-yl)-2-oxoethyl)-1H-indazole-3-carboxamide] was tested, and the IC50 was < 1 µM.
For `CC(=O)c1cn(CC(=O)N(C)[C@H](C(=O)Nc2cccc(-c3ccccc3Cl)c2F)[C@@H](C)O)c2ccccc12` [Compound 15, (2S,3R)-2-(2-(3-acetyl-1H-indol-1-yl)-N-methylacetamido)-N-(2′-chloro-2-fluorobiphenyl-3-yl)-3-hydroxybutanamide], the IC50 was 1 to 10 µM.
For `CC(=O)c1cn(CC(=O)N[C@H](C(=O)Nc2cccc(Br)n2)[C@@H](C)O)c2ccccc12` [Compound 16, (2S,3R)-2-(2-(3-acetyl-1H-indol-1-yl)acetamido)-N-(6-bromopyridin-2-yl)-3-hydroxybutanamide], the IC50 was 1 to 10 µM.
In the case of `NC(=O)c1nn(CC(=O)N2C[C@H](F)C[C@H]2C(=O)Nc2cccc(-c3ccc4[nH]ncc4c3Cl)c2F)c2ccccc12` [Compound 17, 1-(2-((2S,4R)-2-(3-(4-chloro-1H-indazol-5-yl)-2-fluorophenyl-carbamoyl)-4-fluoropyrrolidin-1-yl)-2-oxoethyl)-1H-indazole-3-carboxamide], the IC50 is reported as < 1 µM.
With `CC(=O)c1nc2ccc(-c3cccc(NC(=O)[C@@H]4C[C@@H](F)CN4C(=O)Cn4nc(C(N)=O)c5ccccc54)c3F)c(Cl)c2[nH]1` [Compound 18, 1-(2-((2S,4R)-2-(3-(2-acetyl-7-chloro-1H-benzo[d]imidazol-6-yl)-2-fluorophenyl-carbamoyl)-4-fluoropyrrolidin-1-yl)-2-oxoethyl)-1H-indazole-3-carboxamide] the IC50 was < 1 µM.
`NC(=O)c1nn(CC(=O)N2C[C@H](F)C[C@H]2C(=O)Nc2cccc(-c3ccccc3Cl)c2F)c2cc(Cn3cc(C4CC4)nn3)sc12` [Compound 19, 1-(2-((2S,4R)-2-((2′-Chloro-2-fluoro-[1,1′-biphenyl]-3-yl)carbamoyl)-4-fluoropyrrolidin-1-yl)-2-oxoethyl)-5-((4-cyclopropyl-1H-1,2,3-triazol-1-yl)methyl)-1H-thieno[3,2-c]pyrazole-3-carboxamide] was tested, and the IC50 was < 1 µM.
For `Cn1cnc2c(Cl)c(-c3cccc(NC(=O)[C@@H]4C[C@@H](F)CN4C(=O)Cn4nc(C(N)=O)c5ccccc54)c3F)ccc21` [Compound 20, 1-(2-((2S,4R)-2-(3-(4-chloro-1-methyl-1H-benzo[d]imidazol-5-yl)-2-fluorophenyl-carbamoyl)-4-fluoropyrrolidin-1-yl)-2-oxoethyl)-1H-indazole-3-carboxamide], the IC50 was < 1 µM.
For `NC(=O)c1cccc(CC(=O)N2C[C@H](F)C[C@H]2C(=O)Nc2cccc(-c3ccccc3Cl)c2F)c1` [Compound 21, (2S,4R)-1-(2-(3-carbamoylphenyl)acetyl)-N-(2′-chloro-2-fluorobiphenyl-3-yl)-4-fluoropyrrolidine-2-carboxamide], the IC50 was < 1 µM.
For `NC(=O)c1cc(CC(=O)N2C[C@H](F)C[C@H]2C(=O)Nc2cccc(-c3ccccc3Cl)c2F)ccc1Cl` [Compound 22, (2S,4R)-1-(2-(3-carbamoyl-4-chlorophenyl)acetyl)-N-(2′-chloro-2-fluorobiphenyl-3-yl)-4-fluoropyrrolidine-2-carboxamide], the IC50 was 1 to 10 µM.
`N#Cc1cc(CC(=O)N2C[C@H](F)C[C@H]2C(=O)Nc2cccc(-c3ccccc3Cl)c2F)ccc1Cl` [Compound 23, (2S,4R)-N-(2′-chloro-2-fluorobiphenyl-3-yl)-1-(2-(4-chloro-3-cyanophenyl)acetyl)-4-fluoropyrrolidine-2-carboxamide] showed an IC50 of 1 to 10 µM.
`N#Cc1cccc(CC(=O)N2C[C@H](F)C[C@H]2C(=O)Nc2cccc(-c3ccccc3Cl)c2F)c1` [Compound 24, (2S,4R)-N-(2′-chloro-2-fluorobiphenyl-3-yl)-1-(2-(3-cyanophenyl)acetyl)-4-fluoropyrrolidine-2-carboxamide] was tested, and the IC50 was < 1 µM.
For `NC(=O)c1nn(CC(=O)N2C[C@H](F)C[C@H]2C(=O)Nc2cccc(-c3ccc4cc[nH]c4c3)c2F)c2ccccc12` [Compound 25, 1-(2-((2S,4R)-4-fluoro-2-(2-fluoro-3-(1H-indol-6-yl)phenylcarbamoyl)pyrrolidin-1-yl)-2-oxoethyl)-1H-indazole-3-carboxamide], the IC50 was < 1 µM.
In the case of `NC(=O)c1nn(CC(=O)N2C[C@H](F)C[C@H]2C(=O)Nc2cccc(-c3ccc4nc(N)[nH]c4c3Cl)c2F)c2ccccc12` [Compound 26, 1-(2-((2S,4R)-2-(3-(2-amino-7-chloro-1H-benzo[d]imidazol-6-yl)-2-fluorophenyl-carbamoyl)-4-fluoropyrrolidin-1-yl)-2-oxoethyl)-1H-indazole-3-carboxamide], the IC50 is reported as < 1 µM.
With `NC(=O)c1nn(CC(=O)N2C[C@H](F)C[C@H]2C(=O)Nc2cccc(-c3ccc4cn[nH]c4c3)c2F)c2ccccc12` [Compound 28, 1-(2-((2S,4R)-4-fluoro-2-(2-fluoro-3-(1H-indazol-6-yl)phenylcarbamoyl)pyrrolidin-1-yl)-2-oxoethyl)-1H-indazole-3-carboxamide] the IC50 was < 1 µM.
With `NC(=O)c1nn(CC(=O)N2C[C@H](F)C[C@H]2C(=O)Nc2cccc(Br)n2)c2cc(Cn3cc(C4CC4)nn3)sc12` [Compound 29, 1-(2-((2S,4R)-2-(6-bromopyridin-2-ylcarbamoyl)-4-fluoropyrrolidin-1-yl)-2-oxoethyl)-5-((4-cyclopropyl-1H-1,2,3-triazol-1-yl)methyl)-1H-thieno[3,2-c]pyrazole-3-carboxamide] the IC50 was < 1 µM.
